Experimental data reported in US12508276B2, “Use of ginsenoside M1 for treating Huntington's disease” (priority 2018, dated 2025).

Columns and labels:
STHdh^Q109 cells [1] = assay: MTT reduction assay, survival rate of mHtt expression cells; type: cell-based, mouse; details: 24 h
Description: Conditionally immortalized wild-type […]7 striatal neuronal progenitor cells expressing endogenous normal htt (referred to as wild-type striatal cells), and homozygous mutant […] striatal neuronal progenitor cells from homozygous […] knock-in mice expressing mutant htt with 109 glutamines (referred to as mutant striatal […] and […] cells were generous gifts from Dr. Elena Cattaneo and […] (Department of pharmacological sciences and centre for stem cell research, University of Milano, Italy). These cells were maintained in an incubation chamber at 33° C. in Dulbecco's modified Eagle's medium (DMEM) supplemented with 10% fetal bovine serum (FBS). […]7 and […] cells were treated with 30 μM ginsenoside M1 or vehicle (DMSO) for 24 h. […]7 and […] cells death was quantified by the MTT reduction assay. […] At the end of experiments, cells were incubated in culture medium with 0.5 mg/ml MTT at 37° C. for 2 h. The culture medium was then replaced with DMSO to dissolve the MTT formazan precipitates, which was followed by the measurement of the absorbance at 570 nm using a microplate reader (OPTImax tunable plate reader, Molecular Device, Sunnyvale, CA, USA). The survival rate of the indicated cells was normalized to those survival rate of untreated (vehicle-treated) […]7 cells. As shown in the FIG. 1A, the survival rate of untreated (vehicle-treated) […] cells was lower than that of untreated (vehicle-treated) […]7 cells. […] To confirm the cyto-protective effect of ginsenoside […] cells were treated with 1, 10 and 30 μM ginsenoside M1 or vehicle (DMSO) for 24 h. […] The results are express as the means±SEM of triplicate samples.

STHdh^Q109 cells [2] = assay: Cellular ROS production (H2DCFDA fluorescence); type: cell-based, mouse; details: 1 h, FIG. 2
Protocol: Oxidative stress is one of the important events triggers cell death in STHdh^Q109 cells. To investigate whether ginsenoside M1 inhibited cell death of STHdh^Q109 cells by reducing oxidative stress, STHdh^Q109 cells were treated with 1, 10 and 30 μM ginsenoside M1 or vehicle (DMSO) in the presence of 10 μM intracellular ROS indicator fluorescent probe 2,7-dichlorodihydrofluorescein diacetate (H2DCFDA; Molecular Probes, Inc., Eugene, Oregon, USA) for 1 h. Cellular ROS contents were measured by detecting the fluorescence intensity (Excitation/Emission: 488 nm/510 nm) using a fluorescence plate reader (Fluoroskan Ascent; Thermo Electron Corporation, Woburn, MA, USA). […] The results are express as the means±SEM of triplicate samples. Multiple groups will analyze with one-way analysis of variance (ANOVA), follow by a post-hoc Student-Newman-Keuls test. p value of <0.05 will considered significant. ^ap<0.05: compared to untreated (vehicle-treated) STHdh^Q109 cells.

AMPK = assay: Phosphorylation level of AMPK by Western blotting; type: cell-based, mouse; details: STHdh^Q109 cells, 24 h, vs vehicle-treated STHdh^Q109 cells, FIG. 3
Protocol: Activation of AMPK promotes the pathogenesis of HD [37]. To investigate whether ginsenoside M1 inhibited AMPK activation, […]7 and […] cells were treated with 10 and 30 μM ginsenoside M1 or vehicle (DMSO) for 24 h. The phosphorylation level of AMPK was measured by Western blotting.

ATM = assay: Phosphorylation level of ATM by Western blot; type: cell-based, mouse; details: STHdh^Q109 cells, 24 h, vs vehicle-treated STHdh^Q109 cells, FIG. 4
Protocol: ATM is activated by DNA damage and plays important role in the phosphorylation of AMPK. To investigate whether ginsenoside M1 inhibited ATM activation, […]7 and […] cells were treated with 10 and 30 μM ginsenoside M1 or vehicle (DMSO) for 24 h. The phosphorylation level of ATM was measured by Western blot.

γH2AX = assay: Expression level of γH2AX by Western blot; type: cell-based, mouse; details: STHdh^Q109 cells, 24 h, vs vehicle-treated STHdh^Q109 cells, FIG. 5
Protocol: ATM is now known to regulate DNA repair through the activation of γH2AX. To investigate whether ginsenoside M1 inhibited the expression level of γH2AX, […]7 and […] cells were treated with 10 and 30 μM ginsenoside M1 or vehicle (DMSO) for 24 h. The expression level of γH2AX was measured by Western blot.

p53 = assay: Phosphorylation level of p53 by Western blot; type: cell-based, mouse; details: STHdh^Q109 cells, 24 h, vs vehicle-treated STHdh^Q109 cells, FIG. 6
Protocol: p53 plays a role in the regulation of the cell cycle and apoptosis. p53 becomes activated in response to DNA damage and oxidative stress. To investigate whether ginsenoside M1 inhibited the phosphorylation level of […]7 and […] cells were treated with 10 and 30 μM ginsenoside M1 or vehicle (DMSO) for 24 h. The phosphorylation level of p53 was measured by Western blot.

R6/2 mice [3] = assay: Motor coordination, rotarod apparatus assay in HD disease mice; type: in vivo, mouse; details: 30 mg/kg oral daily for 4 weeks from age of 7 weeks, rotarod 12 rpm, 2 min, FIG. 7
Protocol: (§1) Mice were treated daily with ginsenoside M1 (30 mg/kg of body weight, oral administration) or vehicle for 4 weeks from the age of 7 weeks. Motor coordination was assessed using a rotarod apparatus assay (UGO BASILE, Comerio, Italy) at a constant speed (12 rpm) over a period of 2 min. […] Results were expressed as means±SEM. Multiple groups were analyzed by one-way analysis of variance (ANOVA) followed by a post hoc Student-Newman-Keuls test. ^ap<0.05: between WT and R6/2-vehicle mice. ^bp<0.05: compared to R6/2-vehicle mice.

R6/2 mice [4] = assay: Lifespan of HD disease mice; type: in vivo, mouse; details: 30 mg/kg oral daily for 4 weeks from age of 7 weeks, FIG. 8
Protocol: as §1, with “weeks, and the lifespan of mice” for “weeks. Motor coordination”, “determined.” for “assessed using a rotarod apparatus assay (UGO BASILE, Comerio, Italy) at a constant speed (12 rpm) over a period of 2 min.”

mHtt aggregate = assay: mHtt aggregates in striatal lysates, filter retardation assay; type: in vivo, mouse; details: R6/2 mice, 30 mg/kg oral daily for 4 weeks from age of 7 weeks, FIG. 9
Protocol: Mice were treated daily with ginsenoside M1 (30 mg/kg of body weight, oral administration) or vehicle for 4 weeks from the age of 7 weeks. The amount of mHtt aggregates in striatal lysates was analyzed by a filter retardation assay. Brain tissues were suspended and homogenized in ice-cold THE buffer, mixed with 2% SDS. Samples were first passed through OE66 membrane filters ([…] pore size; Whatman Schleicher and Schuell, Middlesex, UK) in a slot-blot manifold (Bio-Rad, Irvine, CA, USA). Insoluble aggregates retained on the filters were detected using an anti-Htt antibody.

SMILES: CC(C)=CCC[C@](C)(O[C@@H]1O[C@H](CO)[C@@H](O)[C@H](O)[C@H]1O)[C@H]1CC[C@]2(C)[C@@H]1[C@H](O)C[C@@H]1[C@@]3(C)CC[C@H](O)C(C)(C)[C@@H]3CC[C@]12C [ginsenoside M1, 20-O-β-D-glucopyranosyl-20(S)-protopanaxadiol]
- survival rate (STHdh^Q109 cells [1]; 10 μM, FIG. 1B): significantly increased
- survival rate (STHdh^Q109 cells [1]; 30 μM, FIG. 1A): significantly increased
- survival rate (STHdh^Q109 cells [1]; 30 μM, FIG. 1B): significantly increased
- ROS production (STHdh^Q109 cells [2]; 10 μM): significantly reduced
- ROS production (STHdh^Q109 cells [2]; 30 μM): significantly reduced
- phosphorylation level of AMPK (AMPK; 10 μM): significantly reduced
- phosphorylation level of AMPK (AMPK; 30 μM): significantly reduced
- phosphorylation level of ATM (ATM; 10 μM): significantly reduced
- phosphorylation level of ATM (ATM; 30 μM): significantly reduced
- expression level of γH2AX (γH2AX; 10 μM): significantly reduced
- expression level of γH2AX (γH2AX; 30 μM): significantly reduced
- phosphorylation level of p53 (p53; 10 μM): significantly reduced
- phosphorylation level of p53 (p53; 30 μM): significantly reduced
- motor coordination (R6/2 mice [3]): increased significantly
- lifespan (R6/2 mice [4]): significantly prolonged
- mHtt aggregate formation in the striatum (mHtt aggregate): reduced
